Measured values taken from patent US12247004B2, “2-amino-N-(amino-oxo-aryl-lambda6-sulfanylidene)acetamide compounds and their therapeutic use” (Oxford Drug Design Limited, priority 2019, dated 2025).
In brackets after ≈: the same amount, converted by molar mass. Where a name gives a salt, the structure may show the parent alone. Read-outs that look alike come from different tables or passages of the source.

Columns and labels:
[1] = molecular target: Leucyl-tRNA synthetase (LeuRS) (Escherichia coli (strain K12), UniProt P07813); assay: Leucyl-tRNA synthetase enzyme inhibition (AMP-Glo; single point % inhibition at 100 μM and IC50); type: biochemical
Source text: Study 1—Enzyme Inhibition
The aminoacylation reaction catalyzed by aminoacyl-tRNA synthetases (aaRS) takes place in two steps. In the first step, aaRS activates its cognate amino acid with ATP; and in the second step the activated amino acid is loaded to its corresponding tRNA. This reaction can be summarized as follows: aaRS+aa+ATP=aaRS-aa-AMP+PPi aaRS-aa-AMP+tRNA=aa-tRNA+AMP+aaRS
wherein: aaRS, aminoacyl-tRNA synthetase; aa, amino acid; aaRS-aa-AMP, enzyme-bound to aminoacyl-adenylate; AMP, adenosine monophosphate; aa-tRNA, aminoacyl-tRNA, PPi, inorganic pyrophosphate.
a. Single Point Percentage Inhibition
The activity of the pathogenic aaRSs was monitored by measuring AMP production using the commercial kit AMP-Glo (Promega, Madison, USA).
Ligand stock solutions were prepared in 100% DMSO at 10 mM concentration. An assay buffer consisting of 100 mM Tris HCl pH 7.6, 40 mM MgCl, 20 mM KCl and 150 mM NaCl was prepared in dH2O.
Using the same enzymatic assay in a 384-well plate format, ten point concentration response curves were generated for each compound using a top concentration of 10 μM. The known inhibitor LeuAMS was used as a positive control for the LeuRS assay. 100% DMSO was used as a negative control. The IC50 was calculated based on non-linear regression analysis.

[2] = test system: bacteria (ATCC reference strains); assay: Antibacterial activity, MIC by broth micro-dilution (CLSI)
[3] = Acinetobacter baumannii, read-out: Antibacterial Activity (MIC), E = A. baumannii B1931
[4] = Enterobacter cloacae, read-out: Antibacterial Activity (MIC), B = Enterobacter cloacae B1966
[5] = Escherichia coli, ATCC25922, read-out: Antibacterial Activity (MIC), A = E. coli ATCC 25922
[6] = Escherichia coli, BAA2469, read-out: Antibacterial Activity (MIC), G = E. coli BAA-2469
[7] = Klebsiella pneumoniae, ATCC700603, read-out: Antibacterial Activity (MIC), C = K. pneumoniae ATCC 700603
[8] = Pseudomonas aeruginosa, ATCC27853, read-out: Antibacterial Activity (MIC), D = P. aeruginosa ATCC 27853
[9] = E. coli LeuRS, read-out: Enzyme Inhibition - IC50, E. coli LeuRS
[10] = Haemophilus influenzae, ATCC49247, read-out: Antibacterial Activity (MIC), F = H. influenzae ATCC 49247

Leucyl-tRNA synthetase (LeuRS), sequence (P07813 whole entry, looked up): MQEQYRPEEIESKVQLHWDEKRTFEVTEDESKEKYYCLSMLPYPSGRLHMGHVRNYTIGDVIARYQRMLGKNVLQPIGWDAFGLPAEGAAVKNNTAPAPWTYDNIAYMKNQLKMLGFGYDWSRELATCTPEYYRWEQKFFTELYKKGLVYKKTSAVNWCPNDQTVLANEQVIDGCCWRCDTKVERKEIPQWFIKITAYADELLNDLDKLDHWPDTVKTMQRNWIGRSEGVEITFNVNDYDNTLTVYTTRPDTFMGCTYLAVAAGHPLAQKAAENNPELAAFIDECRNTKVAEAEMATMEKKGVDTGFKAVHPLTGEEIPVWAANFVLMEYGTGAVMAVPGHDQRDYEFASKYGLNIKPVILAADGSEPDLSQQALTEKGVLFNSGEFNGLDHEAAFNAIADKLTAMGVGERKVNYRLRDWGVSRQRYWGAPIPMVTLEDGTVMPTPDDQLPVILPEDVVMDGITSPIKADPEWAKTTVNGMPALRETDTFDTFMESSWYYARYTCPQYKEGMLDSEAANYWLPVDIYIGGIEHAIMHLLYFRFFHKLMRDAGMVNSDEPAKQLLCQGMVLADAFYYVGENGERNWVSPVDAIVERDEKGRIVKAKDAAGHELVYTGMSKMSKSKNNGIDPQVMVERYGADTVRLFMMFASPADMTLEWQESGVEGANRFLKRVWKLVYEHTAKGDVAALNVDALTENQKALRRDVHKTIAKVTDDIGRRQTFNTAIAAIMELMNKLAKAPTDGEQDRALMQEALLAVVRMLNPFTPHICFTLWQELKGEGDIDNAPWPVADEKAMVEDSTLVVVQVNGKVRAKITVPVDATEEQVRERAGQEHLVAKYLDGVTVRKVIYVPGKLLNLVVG

Compound | IC50 [1] | MIC [2, 5] | MIC [2, 6] | MIC [2, 7] | IC50 [1, 9] | also measured
CC(C)C[C@H](N)C(=O)N=[S@](N)(=O)c1csc2ccsc12.Cl [ANASIA-100-1] | 0.0278 µM | 1 mg/L | 5.66 mg/L | 45.3 mg/L |  | MIC [2, 3]: 16 mg/L; MIC [2, 4]: 16 mg/L; MIC [2, 8]: 64 mg/L
CC(C)C[C@H](N)C(=O)N=[S@](N)(=O)c1cc(F)cs1 [ANASIA-062-1] | 0.0475 µM |  | 8 mg/L (≈ 27.3 µM) | 32 mg/L (≈ 109 µM) |  | 
CC(C)C[C@H](N)C(=O)N=[S@](N)(=O)c1cc(C#N)cs1.Cl [ANASIA-136-1] | 0.0718 µM | 8 mg/L | > 64 mg/L | > 256 mg/L |  | 
CCOc1cccc(S(N)(=O)=NC(=O)[C@@H](N)CC(C)C)c1 (some centres unmarked) [ANASIA-066] |  | 64 mg/L (≈ 204 µM) | > 64 mg/L |  | 0.553 µM | 
CC(C)C[C@H](N)C(=O)N=[S@@](N)(=O)c1csc(C#N)c1.Cl [ANASIA-135-2] |  | 8 mg/L | 64 mg/L | > 256 mg/L | 0.262 µM | 
Cc1c([S@@](N)(=O)=NC(=O)[C@@H](N)CC(C)C)csc1Cl.Cl [ANASIA-122-1] | 0.167 µM | 32 mg/L |  |  |  | 
CC(C)C[C@H](N)C(=O)N=[S@](N)(=O)c1cccc(C(F)(F)F)c1.Cl [ANASIA-089-1] | 0.195 µM | 64 mg/L |  |  |  | MIC [2, 10]: 64 mg/L
Cc1nc([S@@](N)(=O)=NC(=O)[C@@H](N)CC(C)C)cs1.Cl [ANASIA-129-1] | 0.319 µM |  | 64 mg/L | 128 mg/L |  | 
CC(C)C[C@H](N)C(=O)N=S(N)(=O)c1ccc(F)s1 (some centres unmarked) [ANASIA-071] |  |  | 8 mg/L (≈ 27.3 µM) | 32 mg/L (≈ 109 µM) | 0.173 µM | 
Cc1cc([S@@](N)(=O)=NC(=O)[C@@H](N)CC(C)C)cs1.Cl [ANASIA-098-1] | 0.148 µM | 3.17 mg/L | 4 mg/L | 32 mg/L |  | MIC [2, 3]: 64 mg/L; MIC [2, 4]: 16 mg/L; MIC [2, 8]: 64 mg/L
Cc1sccc1[S@@](N)(=O)=NC(=O)[C@@H](N)CC(C)C.Cl [ANASIA-091-1] | 0.847 µM | 64 mg/L | > 64 mg/L |  |  | 
CC(C)C[C@H](N)C(=O)N=S(N)(=O)c1sccc1F (some centres unmarked) [ANASIA-070] |  |  | 32 mg/L (≈ 109 µM) | 64 mg/L (≈ 218 µM) | 0.143 µM | 
CC(C)C[C@H](N)C(=O)N=S(N)(=O)c1ccccc1O (stereo partly drawn) [ANASIA-113, (2S)-2-amino-N-(amino(2-hydroxyphenyl)(oxo)-λ6-sulfanylidene)-4-methylpentanamide] |  | 64 mg/L (≈ 224 µM) |  |  | 3.23 µM | 
COc1ccc([S@@](N)(=O)=NC(=O)[C@@H](N)CC(C)C)s1.Cl [ANASIA-109-1] | 2.56 µM | 32 mg/L | 32 mg/L |  |  | 
CC(C)C[C@H](N)C(=O)N=S(N)(=O)c1ccsc1F (some centres unmarked) [ANASIA-074] |  |  | 16 mg/L (≈ 54.5 µM) | 32 mg/L (≈ 109 µM) | 0.0992 µM | 
CC(C)C[C@H](N)C(=O)N=[S@](N)(=O)c1ccsc1C(F)F.Cl [ANASIA-126-1] | 0.208 µM | 5.66 mg/L | 32 mg/L | 256 mg/L |  | MIC [2, 3]: > 64 mg/L; MIC [2, 4]: > 64 mg/L; MIC [2, 8]: > 64 mg/L
CC(C)C[C@H](N)C(=O)N=[S@](N)(=O)c1sc(Cl)cc1Cl.Cl [ANASIA-120-1] | 0.293 µM | 32 mg/L |  |  |  | 
CC(C)C[C@H](N)C(=O)N=[S@](N)(=O)c1scc(Br)c1Br.Cl [ANASIA-107-1] | 0.106 µM | 32 mg/L |  |  |  | 
CC(C)C[C@H](N)C(=O)N=[S@](N)(=O)c1csc(Cl)c1.Cl [ANASIA-099-1] | 0.124 µM | 0.5 mg/L | 4 mg/L | 8 mg/L |  | MIC [2, 3]: 16 mg/L; MIC [2, 4]: 4 mg/L; MIC [2, 8]: 64 mg/L
CCc1csc([S@@](N)(=O)=NC(=O)[C@@H](N)CC(C)C)c1 [ANASIA-133-1, (S)-2-amino-N—((S)-amino(4-ethylthiophen-2-yl)(oxo)-λ6-sulfanylidene)-4-methylpentanamide] | 0.0973 µM |  | 8 mg/L (≈ 26.4 µM) | 128 mg/L (≈ 422 µM) |  | 
COc1cccc(S(N)(=O)=NC(=O)[C@@H](N)CC(C)C)c1 (stereo partly drawn) [ANASIA-102, (2S)-2-amino-N-(amino(3-methoxyphenyl)(oxo)-16-sulfaneylidene)-4-methylpentanamide] |  | 16 mg/L (≈ 53.4 µM) | > 64 mg/L |  | 0.385 µM | 
Cc1csc([S@@](N)(=O)=NC(=O)[C@@H](N)CC(C)C)c1C.Cl [ANASIA-104-1] | 0.241 µM | 8 mg/L | 16 mg/L | 128 mg/L |  | 

Compound | IC50 [1] | MIC [2, 5] | MIC [2, 6] | MIC [2, 7] | IC50 [1, 9] | also measured
CC(C)C[C@H](N)C(=O)N=[S@](N)(=O)c1csc2ccccc12 [ANASIA-083-1] |  | 32 mg/L (≈ 98.3 µM) |  |  | 0.157 µM | MIC [2, 10]: 32 mg/L (≈ 98.3 µM)
CC(=O)c1sccc1[S@@](N)(=O)=NC(=O)[C@@H](N)CC(C)C (single isomer, unassigned) [ANASIA-112-1] | 0.294 µM | 32 mg/L (≈ 101 µM) | 64 mg/L (≈ 202 µM) |  |  | 
CC(C)C[C@H](N)C(=O)N=[S@](N)(=O)c1csc(Cl)c1Cl.Cl [ANASIA-125-1] | 0.304 µM |  | 64 mg/L | > 256 mg/L |  | 
Cc1cscc1[S@@](N)(=O)=NC(=O)[C@@H](N)CC(C)C.Cl [ANASIA-094-1] | 0.476 µM | 8 mg/L | 64 mg/L | 128 mg/L |  | 
CC(C)C[C@H](N)C(=O)N=[S@](N)(=O)c1ccccn1.Cl [ANASIA-075-1] | 0.42 µM | 32 mg/L |  |  |  | MIC [2, 10]: > 64 mg/L
CC(C)C[C@H](N)C(=O)N=S(N)(=O)c1cc(F)c(F)s1 (some centres unmarked) [ANASIA-063] |  |  | 64 mg/L (≈ 206 µM) | > 256 mg/L | 0.223 µM | 
C=Cc1ccsc1S(N)(=O)=NC(=O)[C@@H](N)CC(C)C (stereo partly drawn) [ANASIA-106, (2S)-2-amino-N-(amino(oxo)(3-vinylthiophen-2-yl)-λ6-sulfanylidene)-4-methylpentanamide hydrochloride] |  |  |  |  | 0.897 µM | 
CC(C)C[C@H](N)C(=O)N=[S@@](N)(=O)c1csc(Cl)c1 [ANASIA-099-2] |  |  |  |  | 0.511 µM | 
CC(C)C[C@H](N)C(=O)N=[S@@](N)(=O)c1cc(C#N)cs1 [ANASIA-136-2] |  |  |  |  | 1.41 µM | 
CC(C)C[C@H](N)C(=O)N=[S@@](N)(=O)c1ccsc1Cl [ANASIA-092-2] |  |  |  |  | 1.97 µM | 
CC(C)C[C@H](N)C(=O)N=S(N)(=O)c1sc(Cl)nc1Cl (some centres unmarked) [ANASIA-076] |  |  |  |  | 2.26 µM | 
CC(C)C[C@H](N)C(=O)N=[S@@](N)(=O)c1cc(Cl)c(Cl)s1 [ANASIA-121-2] |  |  |  |  | 1.1 µM | 
CC(C)C[C@H](N)C(=O)N=S(N)(=O)c1cscc1C#N (some centres unmarked) [ANASIA-096] |  |  |  |  | 0.7 µM | 
CC(C)C[C@H](N)C(=O)N=[S@@](N)(=O)c1scc(Br)c1Br [ANASIA-107-2] |  |  |  |  | 1.29 µM | 
CCc1ccsc1[S@](N)(=O)=NC(=O)[C@@H](N)CC(C)C [ANASIA-119-2] |  |  |  |  | 4.65 µM | 
CC(C)C[C@H](N)C(=O)N=[S@](N)(=O)c1ccc(C(C)C)s1 [ANASIA-111-1] | 0.779 µM |  |  |  |  | 
Cc1csc([S@](N)(=O)=NC(=O)[C@@H](N)CC(C)C)c1 [ANASIA-095-2] |  |  |  |  | 1.89 µM | 
CC(C)C[C@H](N)C(=O)N=[S@@](N)(=O)c1ccsc1C(F)F [ANASIA-126-2] |  |  |  |  | 1.72 µM | 
CC(C)C[C@H](N)C(=O)N=[S@@](N)(=O)c1cccc(C(C)(C)C)c1 [ANASIA-049-2] |  |  |  |  | 2.63 µM | 
CC(C)C[C@H](N)C(=O)N=[S@](N)(=O)c1cc(-c2ccccc2)cs1 [ANASIA-067-1] | 1.92 µM |  |  |  |  | 
CC(C)C[C@H](N)C(=O)N=[S@@](N)(=O)c1scc(Cl)c1Cl [ANASIA-081-2] |  |  |  |  | 0.488 µM | 
N[C@@H](CC1CC1)C(=O)N=[S@](N)(=O)c1ccccc1 [ANASIA-050-1] | 4.33 µM |  |  |  |  | 
